Measured values as given in patent EP2970215B1, “PYRROLIDINE DERIVATIVES, PHARMACEUTICAL COMPOSITIONS CONTAINING THEM, AND THEIR USE IN THERAPY” (AbbVie Deutschland GmbH & Co. KG, priority 2013, dated 2014).

What follows are compounds tested against T1, human GlyT1c transporter (Homo sapiens, UniProt P48067) (assay: Radioligand binding assay using recombinant CHO cell membranes expressing human GlyT1). Settings: radioligand binding to human GlyT1c transporter-expressing membranes.
T1 construct: expressed in transfected cells; host or cells: CHO cells (recombinant; line hGlyT1c_5_CHO is named for the uptake assay)
T1 sequence (P48067 1-706): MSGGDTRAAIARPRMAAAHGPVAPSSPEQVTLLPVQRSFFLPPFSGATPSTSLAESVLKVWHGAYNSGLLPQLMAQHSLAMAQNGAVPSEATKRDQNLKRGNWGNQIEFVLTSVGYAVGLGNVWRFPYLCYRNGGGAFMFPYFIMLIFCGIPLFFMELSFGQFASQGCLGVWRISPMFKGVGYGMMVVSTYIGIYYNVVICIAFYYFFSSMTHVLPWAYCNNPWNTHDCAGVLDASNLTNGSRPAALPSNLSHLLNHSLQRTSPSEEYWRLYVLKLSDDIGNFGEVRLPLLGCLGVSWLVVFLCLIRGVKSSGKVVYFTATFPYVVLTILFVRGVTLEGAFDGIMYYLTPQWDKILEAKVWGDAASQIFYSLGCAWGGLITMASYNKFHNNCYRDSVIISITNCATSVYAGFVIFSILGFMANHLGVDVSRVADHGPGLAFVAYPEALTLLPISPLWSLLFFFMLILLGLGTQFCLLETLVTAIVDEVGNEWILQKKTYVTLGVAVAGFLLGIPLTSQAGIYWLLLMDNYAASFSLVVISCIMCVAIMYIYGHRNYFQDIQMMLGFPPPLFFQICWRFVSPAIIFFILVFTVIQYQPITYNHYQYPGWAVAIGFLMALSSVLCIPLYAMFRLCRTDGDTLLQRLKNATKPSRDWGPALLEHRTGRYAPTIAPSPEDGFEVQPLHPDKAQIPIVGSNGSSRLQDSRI
Description: 2. Radioligand binding assays using recombinant CHO cell membranes expressing human GlyT1: […]

Row | SMILES | Ki [nM]
1 | COC[C@H](C)NC[C@@H]1CN(S(=O)(=O)c2cn(C)cn2)C[C@H]1c1ccc(F)cc1 (mixture of isomers) [Example 596, (2S)-N-({trans-4-(4-fluorophenyl)-1-[(1-methyl-1H-imidazol-4-yl)sulfonyl]pyrrolidin-3-yl}methyl)-1-methoxypropan-2-amine] | ≤ 10000
2 | Cn1cnc(S(=O)(=O)N2C[C@H](NCc3cc(Cl)ccc3OC(F)F)[C@@H](c3ccccc3)C2)c1 [Example 569, (3R,4S)-N-[5-chloro-2-(difluoromethoxy)benzyl]-1-[(1-methyl-1H-imidazol-4-yl)sulfonyl]-4-phenylpyrrolidin-3-amine] | ≤ 1000
3 | Cn1cnc(S(=O)(=O)N2C[C@H](NCc3sc4ccccc4c3Cl)[C@@H](c3ccccc3)C2)c1 [Example 440, (3R,4S)-N-[(3-chloro-1-benzothiophen-2-yl)methyl]-1-[(1-methyl-1H-imidazol-4-yl)sulfonyl]-4-phenylpyrrolidin-3-amine] | ≤ 100
4 | Cn1cnc(S(=O)(=O)N2C[C@@H](Nc3cccc(Cl)c3)[C@H](c3ccccc3Cl)C2)c1 (relative stereo) [Example 278, trans-4-(2-chlorophenyl)-N-(3-chlorophenyl)-1-[(1-methyl-1H-imidazol-4-yl)sulfonyl]pyrrolidin-3-amine] | ≤ 100
5 | COc1ccccc1C(=O)N[C@@H]1CN(S(=O)(=O)c2cn(C)cn2)C[C@H]1c1ccccc1 (relative stereo) [Example 20, 2-methoxy-N-{trans-1-[(1-methyl-1H-imidazol-4-yl)sulfonyl]-4-phenylpyrrolidin-3-yl}benzamide] | ≤ 10000
6 | Cc1cc2c(cc1S(=O)(=O)N1CC(Nc3ccc(F)c(F)c3)C(c3ccccc3)C1)OCC(=O)N2 (stereo not drawn) [Example 481, 7-({3-[(3,4-difluorophenyl)amino]-4-phenylpyrrolidin-1-yl}sulfonyl)-6-methyl-2H-1,4-benzoxazin-3(4H)-one] | ≤ 10000
7 | Cn1cnc(S(=O)(=O)N2C[C@@H]([C@@H]3CCCOC3)[C@H](Nc3cccc(OC(F)(F)F)c3)C2)c1 (mixture of isomers) [Example 784, trans-1-[(1-methyl-1H-imidazol-4-yl)sulfonyl]-4-[(3S)-tetrahydro-2H-pyran-3-yl]-N-[3-(trifluoromethoxy)phenyl]pyrrolidin-3-amine] | ≤ 100
8 | CCCCOc1cc(N[C@H]2CN(S(=O)(=O)c3cn(C)cn3)C[C@@H]2c2ccc(F)cc2)ncn1 [Example 717, 6-butoxy-N-{(3R,4S)-4-(4-fluorophenyl)-1-[(1-methyl-1H-imidazol-4-yl)sulfonyl]pyrrolidin-3-yl}pyrimidin-4-amine] | ≤ 100
9 | Cn1cnc(S(=O)(=O)N2C[C@@H](Nc3ccc(F)cc3F)[C@H](c3ccc(F)cc3)C2)c1 (relative stereo) [Example 165, trans-N-(2,4-difluorophenyl)-4-(4-fluorophenyl)-1-[(1-methyl-1H-imidazol-4-yl)sulfonyl]pyrrolidin-3-amine] | ≤ 1000
10 | Cn1cnc(S(=O)(=O)N2C[C@@H](Nc3cccc(Cl)c3)[C@H](OCC3CC3)C2)c1 (relative stereo) [Example 530, Trans-N-(3-chlorophenyl)-4-(cyclopropylmethoxy)-1-[(1-methyl-1H-imidazol-4-yl)sulfonyl]pyrrolidin-3-amine] | ≤ 1000
11 | CCOc1cc(N[C@H]2CN(S(=O)(=O)c3cn(C)cn3)C[C@@H]2c2ccccc2)ncn1 [Example 620, 6-ethoxy-N-{(3R,4S)-1-[(1-methyl-1H-imidazol-4-yl)sulfonyl]-4-phenylpyrrolidin-3-yl}pyrimidin-4-amine] | ≤ 1000

Same assay, conditions: radioligand binding, recombinant CHO cell membranes expressing human GlyT1c

Row | SMILES | Ki [nM]
12 | Cn1cnc(S(=O)(=O)N2C[C@@H](Nc3ccc(F)c(Cl)c3)[C@H](C3CCCO3)C2)c1 (relative stereo) [Example 824, Trans-N-(3-chloro-4-fluorophenyl)-1-[(1-methyl-1H-imidazol-4-yl)sulfonyl]-4-(tetrahydrofuran-2-yl)pyrrolidin-3-amine] | ≤ 1000
